Assay results taken from patent US10391201B2, “Gene therapy” (Ospedale San Raffaele S.r.l., priority 2014, dated 2019).

What was measured:
Assay type in all cases: cell-based, human
BM-derived CD34+ cells = experiment: γ-retroviral SINRV-GFP transduction of BM-derived CD34+ cells; conditions: BM-derived HSPC; MOI of 10 (FIG. 24)
Procedure: A, B. The percentage of GFP+ cells was evaluated by FACS five days after transduction. Data represent the mean±SEM of four independent experiments.
Third generation lentivirus (LV) stocks were prepared, concentrated and titred as previously described (Dull, T. et al. (1998) J. Virol. 72: 8463-71; Follenzi, A. et al. (2000) Nat. Genetics 25: 217-22). […]. Bald vector, a normal LV produced by omitting the Env-encoding plasmid during vector production, was produced as a negative control. During vector production, the Env construct was substituted by pcDNA3.1 (Invitrogen Inc.). […]
Human CB and BM-derived haematopoietic stem/progenitor cells (HSPC) were cultured in serum-free StemSpan medium (StemCell Technologies) supplemented with 100 ng/mL recombinant human stem cell factor (rhSCF), 20 ng/mL recombinant human thrombopoietin (rhTPO), 100 ng/mL recombinant human Flt3 ligand (rhFlt3) and 20 ng/mL recombinant human IL6 (rhIL6) (all from Peprotech) 16 to 24 hours prior to transduction. […] After transduction, cells were washed and maintained serum-free StemSpan supplemented with cytokines as above until the reading of GFP-positive (GFP+) cells by FACS. […]

IFNα = IFNα ELISA on supernatants of transduced CB-derived HSPC; conditions: CB-derived HSPC 24 hours after exposure (FIG. 26)
Procedure: IFNα levels in supernatants from HSPC transduced in the presence of the agents. […] IFNα concentration was assessed using the VeriKine™ Human IFN Alpha ELISA Kit. HUVEC-10 cells were used as a positive control and the medium in which the cells were cultured as the negative control. Data represent the mean±SEM of three independent experiments.
To assess the secretion of human IFNα upon transduction of CB-derived HSPCs in the presence of the different compounds, supernatants from transduced cells were harvested 24 hours post-transduction and the IFNα concentration was assessed using the VeriKine™ Human IFN Alpha ELISA Kit (PBL interferon source, #41100) according to manufacturer's instructions.

CB-derived CD34+ cells = experiment: LV replication intermediates (late-RT, 2LTR circles, integrated copies) in CB-derived CD34+ cells
Procedure: (§1) CsA and rapamycin act on distinct steps on the LV life cycle. […] The LV genome fate was tracked by measuring late-RT product (A) and 2LTR circles (B) 24 hours after transduction and integrated proviral copies 2 weeks after transduction (C). Data represent the mean±SEM of four independent experiments expressed as fold versus DMSO WT (A,B) or as absolute copies/cell (C). D. IDLV transduction efficiency was measured 3 days after transduction by FACS and by measuring the retrotranscribed LV DNA products by PCR. Data are the mean±SEM of three independent experiments. P values are for one-way with Bonferonni's multiple comparison. *P<0.05, **P<0.01, ****P<0.0001.
as §1, with “FACS (left panel)” for “FACS”, “PCR (right panel).” for “PCR.”, “P values are for one-way with Bonferonni's multiple comparison. *P<0.05, **P<0.01, ****P<0.0001.” left out
To analyse viral replication intermediates, transduced cells were washed and resuspended in Monini lysis buffer (0.1% polyoxyethylene 10 lauryl ether (Sigma), 0.1 mg/mL proteinase K (Promega)) (25 μL per 1×10^5 cells), incubated at 65° C. for 2 h and heat inactivated at 94° C. for 15 min (Monini, P. et al. (1999) Blood 93: 4044-58). […] Late-RT and 2LTR circles were measured by semi-quantitative Taqman assay with primers described below and normalised using the human TERT gene. Results are expressed as fold versus the DMSO control, as described above.
DNA from cell cultures was extracted using a Maxwell 16 instrument (Promega) or Blood & Cell Culture DNA Micro Kit (Qiagen). […] Vector copy numbers and replication intermediates were normalised to genomic DNA content, which was assessed using the human TERT gene. […]

CO[C@H]1C[C@@H]2CC[C@@H](C)[C@@](O)(O2)C(=O)C(=O)N2CCCC[C@H]2C(=O)O[C@H]([C@H](C)C[C@@H]2CC[C@@H](O)[C@H](OC)C2)CC(=O)[C@H](C)/C=C(\C)[C@@H](O)[C@@H](OC)C(=O)[C@H](C)C[C@H](C)/C=C/C=C/C=C/1C [rapamycin, Rapamycin]
percentage of GFP+ cells with γ-retroviral SINRV (BM-derived CD34+ cells): neither compound was able to significantly increase | IFNα secretion (IFNα): no detectable levels | 2-long-terminal-repeat (2LTR) circles vs DMSO (CB-derived CD34+ cells; 10 μg/ml rapamycin, 24 hours after transduction): consequent increase | late-RT products vs DMSO, independently of the CA (CB-derived CD34+ cells; WT, A88T or A92E LV, 10 μg/ml rapamycin, 24 hours after transduction): two to threefold increase | integrated vector (proviral) copies vs DMSO (CB-derived CD34+ cells; all vectors, 2 weeks after transduction): increase
